From the supplement of paper PMC10307832

These cell lines were tested with C[C@]1(c2nc3c(C(N)=O)cccc3[nH]2)CCCN1 [Veliparib] (assay: relative viability (nuclei count vs DMSO), 5 days (fraction); higher = more cells survive). Conditions: 0.02 µM.
In short: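 Lung cancer cell lines received five library-drug doses (not always all listed) spaced by √10, pinned on vehicle-anchored 1536-well plates after an overnight stay at 37 °C. Five days later, with no medium change, nuclei were Hoechst-stained, imaged at 4× and counted with MetaXpress. Viability is treated-well nuclei relative to vehicle-well nuclei, as a median across plates. Passing plates had control CV below 25% and at least one doubling.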

IA-LM and NCI-H2009 are the same in relative viability: 0.918 for the first, 0.918 for the second.

Going from COR-L 105 to NCI-H1395, the relative viability falls from 0.843 to 0.594.

First: NCI-H520
Second: NCI-H358
The relative viability of the first is higher: 0.977 for the first, 0.762 for the second.

Compared with HCC-78, EKVX is lower in relative viability: 0.987 for the first, 0.744 for the second.

Going from EBC-1 to NCI-H1299, the relative viability falls from 1.05 to 0.993.

Compared with LK-2, PC-14 is lower in relative viability: 0.861 for the first, 0.805 for the second.

Compared with LXF-289, LC-2-ad is lower in relative viability: 0.996 for the first, 0.608 for the second.

First: A549
Second: NCI-H1651
The relative viability of the first is higher: 1 for the first, 0.977 for the second.

Compared with COR-L23, HCC-827 is lower in relative viability: 0.998 for the first, 0.986 for the second.

Compared with RERF-LC-KJ, NCI-H1563 is lower in relative viability: 0.964 for the first, 0.851 for the second.

Compared with NCI-H3122, BEN is lower in relative viability: 1 for the first, 0.833 for the second.

First: UMC-11
Second: LCLC-97TM1
The relative viability of the first is higher: 1.09 for the first, 0.903 for the second.

Compared with NCI-H2085, A-427 is lower in relative viability: 0.851 for the first, 0.781 for the second.

Compared with NCI-H727, NCI-H838 is higher in relative viability: 0.941 for the first, 1.05 for the second.

Same assay, conditions: 0.06325 µM

HCC-15 and NCI-H460 are the same in relative viability: 0.952 for the first, 0.952 for the second.

Going from EMC-BAC-2 to IA-LM, the relative viability rises from 0.786 to 0.831.

Going from NCI-H2009 to COR-L 105, the relative viability falls from 0.922 to 0.794.

Going from NCI-H1395 to NCI-H520, the relative viability rises from 0.655 to 0.975.

Going from NCI-H358 to HCC-78, the relative viability falls from 0.856 to 0.829.

EKVX and EBC-1 are the same in relative viability: 0.93 for the first, 0.93 for the second.

Compared with NCI-H1299, NCI-H1650 is lower in relative viability: 1 for the first, 0.846 for the second.

Compared with EPLC-272H, LK-2 is higher in relative viability: 0.855 for the first, 1.06 for the second.

First: PC-14
Second: LXF-289
The relative viability of the first is lower: 0.936 for the first, 0.992 for the second.

Compared with LC-2-ad, A549 is higher in relative viability: 0.944 for the first, 0.957 for the second.

First: NCI-H1651
Second: COR-L23
The relative viability of the first is higher: 0.906 for the first, 0.872 for the second.

Going from HCC-827 to RERF-LC-KJ, the relative viability falls from 1.03 to 0.939.

First: NCI-H1563
Second: NCI-H3122
The relative viability of the first is lower: 0.953 for the first, 1.01 for the second.

First: BEN
Second: UMC-11
The relative viability of the first is lower: 0.873 for the first, 0.997 for the second.

Compared with LCLC-97TM1, NCI-H2085 is higher in relative viability: 0.925 for the first, 0.999 for the second.

Going from A-427 to NCI-H727, the relative viability falls from 0.995 to 0.913.

Cell Line NCI-H838 has a relative viability of 0.909.

Same assay, conditions: 0.2 µM

Going from HCC-15 to NCI-H460, the relative viability falls from 1.04 to 0.967.

First: EMC-BAC-2
Second: IA-LM
The relative viability of the first is higher: 1.09 for the first, 0.952 for the second.

Compared with NCI-H2009, COR-L 105 is lower in relative viability: 0.972 for the first, 0.895 for the second.

Compared with NCI-H1395, NCI-H520 is higher in relative viability: 0.791 for the first, 0.97 for the second.

Going from NCI-H358 to HCC-78, the relative viability rises from 0.924 to 0.949.

Going from EKVX to EBC-1, the relative viability rises from 0.94 to 0.983.

NCI-H1299 and NCI-H1650 are the same in relative viability: 1.01 for the first, 1.01 for the second.

First: EPLC-272H
Second: LK-2
The relative viability of the first is lower: 1.02 for the first, 1.08 for the second.

Going from PC-14 to LXF-289, the relative viability rises from 0.974 to 1.03.

Going from LC-2-ad to A549, the relative viability falls from 0.977 to 0.962.

Compared with NCI-H1651, COR-L23 is lower in relative viability: 0.96 for the first, 0.924 for the second.

Compared with HCC-827, RERF-LC-KJ is higher in relative viability: 1 for the first, 1.01 for the second.

First: NCI-H1563
Second: NCI-H3122
The relative viability of the first is lower: 0.956 for the first, 0.974 for the second.

Going from BEN to UMC-11, the relative viability falls from 0.987 to 0.964.

First: LCLC-97TM1
Second: NCI-H2085
The relative viability of the first is lower: 0.897 for the first, 0.983 for the second.

Going from A-427 to NCI-H727, the relative viability rises from 0.943 to 1.06.

For NCI-H838, the relative viability was 0.974.

Same assay, conditions: 0.6325 µM

First: HCC-15
Second: NCI-H460
The relative viability of the first is higher: 0.985 for the first, 0.931 for the second.

First: EMC-BAC-2
Second: IA-LM
The relative viability of the first is higher: 1.11 for the first, 0.896 for the second.

Compared with NCI-H2009, COR-L 105 is lower in relative viability: 0.931 for the first, 0.835 for the second.

Compared with NCI-H1395, NCI-H520 is higher in relative viability: 0.817 for the first, 0.87 for the second.

Compared with NCI-H358, HCC-78 is lower in relative viability: 0.941 for the first, 0.828 for the second.

Going from EKVX to EBC-1, the relative viability falls from 1 to 0.915.

First: NCI-H1299
Second: NCI-H1650
The relative viability of the first is higher: 0.968 for the first, 0.875 for the second.

First: EPLC-272H
Second: LK-2
The relative viability of the first is higher: 1.01 for the first, 0.916 for the second.

First: PC-14
Second: LXF-289
The relative viability of the first is higher: 0.955 for the first, 0.941 for the second.

Compared with LC-2-ad, A549 is lower in relative viability: 0.941 for the first, 0.9 for the second.

Going from NCI-H1651 to COR-L23, the relative viability rises from 0.882 to 0.952.

First: HCC-827
Second: RERF-LC-KJ
The relative viability of the first is higher: 0.977 for the first, 0.938 for the second.

Compared with NCI-H1563, NCI-H3122 is lower in relative viability: 0.966 for the first, 0.957 for the second.

Going from BEN to UMC-11, the relative viability rises from 0.86 to 0.926.

Compared with LCLC-97TM1, NCI-H2085 is higher in relative viability: 0.912 for the first, 0.922 for the second.

Going from A-427 to NCI-H727, the relative viability falls from 0.939 to 0.897.

Cell Line NCI-H838 has a relative viability of 0.9.

Same assay, conditions: 2 µM

First: HCC-15
Second: NCI-H460
The relative viability of the first is higher: 1.05 for the first, 0.964 for the second.

Going from EMC-BAC-2 to IA-LM, the relative viability falls from 0.965 to 0.886.

First: NCI-H2009
Second: COR-L 105
The relative viability of the first is higher: 1.1 for the first, 1.08 for the second.

Going from NCI-H1395 to NCI-H520, the relative viability rises from 0.692 to 0.993.

Going from NCI-H358 to HCC-78, the relative viability falls from 0.94 to 0.888.

Compared with EKVX, EBC-1 is higher in relative viability: 0.972 for the first, 1 for the second.

Going from NCI-H1299 to NCI-H1650, the relative viability falls from 1.02 to 0.874.

Going from EPLC-272H to LK-2, the relative viability rises from 0.938 to 0.964.

Going from PC-14 to LXF-289, the relative viability rises from 0.993 to 1.

Going from LC-2-ad to A549, the relative viability rises from 0.867 to 0.989.

First: NCI-H1651
Second: COR-L23
The relative viability of the first is lower: 0.915 for the first, 1.03 for the second.

Going from HCC-827 to RERF-LC-KJ, the relative viability falls from 1.07 to 1.01.

Going from NCI-H1563 to NCI-H3122, the relative viability falls from 1.05 to 1.

Compared with BEN, UMC-11 is higher in relative viability: 0.87 for the first, 0.983 for the second.

Compared with LCLC-97TM1, NCI-H2085 is higher in relative viability: 0.993 for the first, 1.01 for the second.

First: A-427
Second: NCI-H727
The relative viability of the first is lower: 0.841 for the first, 1 for the second.

With NCI-H838 the relative viability was 1.02.
